The nature of the data set: Pharmacokinetic study of DRV in rats after oral dosing. Type of data set: in vivo, male Wistar rats.
Setting [1] is: male, Wistar, rat, plasma, po, 50 mg/kg.
The mark [2] stands for this setting: oral 50 mg/kg, rats, n=6, mean±SD.

Results on one molecule are retold here after publication PMC5761474 (Journal of Pharmaceutical Analysis, 2014).

A word on the AUC(0-inf): it is total exposure, with the tail of the curve extrapolated. By AUC(0-t) is commonly meant the area under the concentration-time curve up to a stated or last time point. One may read the Cmax as the highest concentration seen after dosing. In general, MRT inf refers to the average time that molecules of a dose stay in the body. As usually defined, the Tmax is the time at which the peak concentration occurs. For `CC(C)CN(C[C@@H](O)[C@H](Cc1ccccc1)NC(=O)O[C@H]1CO[C@H]2OCC[C@H]21)S(=O)(=O)c1ccc(N)cc1` [DRV, darunavir], under setting [1], the total exposure AUC(0-inf) was determined as 1060 ± 49 ng·h/mL, the AUC(0-t) amounted to 1010 ± 48 ng·h/mL, the peak concentration (Cmax) worked out at 130 ± 4 ng/mL and the MRT inf came to 7.89 ± 0.83 h. The Tmax under setting [1] was determined as 3 ± 0.28 h. Further, under setting [2], the “AUMC0−t” value is given as 6518±386 ng h^2/mL and the “AUMC0−∞” value is 8408±914 ng h^2/mL.
